# Reference: patent US20240398814A1, “KRAS INHIBITOR AND HDAC INHIBITOR COMBINATION FOR THE TREATMENT OF CANCER” (Northwestern University, priority 2023, published 2024)
# Experiments:
# [1] = tested on: H460 cells; experiment: qRT-PCR of chemokine gene expression in H460 cells; type: cell-based, human; details: 1 uM entinostat 4 days, 5 uM BRD3308 4 days
# Description: All cell lines were incubated at 37° C. and were maintained in an atmosphere containing 5% CO2. Cells were tested for Mycoplasma (Lonza) using manufacturer's conditions and were deemed negative. Cells were grown in Dulbecco's modified Eagles medium (DMEM) plus 10% fetal bovine serum (Gibco) and were continuously maintained under antibiotic selection for stable cell lines. Proliferation assays were performed by plating 2×10^3 cells per well of a 6-well plate, and cells were counted 5 days post-plating. Drug treatments were carried out using the following doses: entinostat 1 uM or 2 uM, RGFP966 10uM, TSA 0.5 uM, BRD3308 5 uM, trametinib 5 nM, 10 nM, and 25 nM, and MRTX1133 10 nM, 25 nM, and 50 nM, as indicated for the indicated treatment lengths. Media was changed and fresh drug added every 2 days.
# mRNA was prepared using the Quick-RNA Miniprep kit (Zymo Research), including DNase treatment. cDNA was synthesized from 2 μg of RNA using SuperScript III (Life Technologies), and qPCR was carried out with diluted cDNA, appropriate primers, and SYBR Green PCR master mix (ThermoFisher Scientific) using a C1000 Thermal Cycler (BioRad). Relative mRNA levels were calculated using the delta Ct method, using Tbp as an internal control.
# [2] = tested on: KL lung tumors; experiment: 6-week in vivo entinostat and trametinib treatment, flow cytometry immune profiling; set-up: species or system mouse; details: 6 weeks; percentage of total CD45+ cells
# Description: The 6-week duration study was carried out according to the same experimental design except for the following: To ensure an extended treatment duration, treatment was initiated after tumor burden was detected by BLI in >30% of mice in the study. Entinostat was administered at a dose of 10 mg/kg to assess systemic drug impact at a dose corresponding to potent tumor growth control. Because mice were gavaged twice daily for an extended duration, an additional drug holiday was built into the dosing schedule starting after 3 weeks of treatment; mice were administered drug using the following schedule: 4 days on, 1 day off, 1 day on, and 1 day off (imaging day).
# Tumor digestion and cell isolation: Lungs were removed from the chest, washed with PBS, dried on paper towels and then tumor nodules were excised from adjacent tissue and both adjacent tissue and nodules were weighed. Nodules or adjacent tissue was minced into small pieces and suspended in digestion media consisting of RPMI 1640 with 2% FBS, 0.5 ug/mL of DNase I and 1 unit/mL collagenase Type I (Sigma-Aldrich Cat #0000137295) and placed in an incubator at 37° C. for 45 minutes, shaking once during digestion. […]
structure (smiles),measurement,setting,value
Nc1ccccc1NC(=O)c1ccc(CNC(=O)OCc2cccnc2)cc1 [entinostat],chemokine (SASP) gene expression,[1],induced the expression of these genes
same,gMDSCs in lung tumors,[2],No changes were observed
